{"source": "paper PMC6872814", "about": "“Functional interactions between nitrite reductase and nitric oxide reductase from Paracoccus denitrificans” (Scientific Reports, 2019)", "molecular_target": "T1, cNOR (c-type nitric oxide reductase, NorB and NorC) (Paracoccus denitrificans, UniProt A1B4X6+Q51662)", "T1 construct": "gene Pden_2483; NorBC two-subunit complex, plasmid pNOREX in E. coli JM109 with pEC86, DDM-solubilised and purified; reconstituted in liposomes for the Km", "T1 sequence (A1B4X6 1-462)": "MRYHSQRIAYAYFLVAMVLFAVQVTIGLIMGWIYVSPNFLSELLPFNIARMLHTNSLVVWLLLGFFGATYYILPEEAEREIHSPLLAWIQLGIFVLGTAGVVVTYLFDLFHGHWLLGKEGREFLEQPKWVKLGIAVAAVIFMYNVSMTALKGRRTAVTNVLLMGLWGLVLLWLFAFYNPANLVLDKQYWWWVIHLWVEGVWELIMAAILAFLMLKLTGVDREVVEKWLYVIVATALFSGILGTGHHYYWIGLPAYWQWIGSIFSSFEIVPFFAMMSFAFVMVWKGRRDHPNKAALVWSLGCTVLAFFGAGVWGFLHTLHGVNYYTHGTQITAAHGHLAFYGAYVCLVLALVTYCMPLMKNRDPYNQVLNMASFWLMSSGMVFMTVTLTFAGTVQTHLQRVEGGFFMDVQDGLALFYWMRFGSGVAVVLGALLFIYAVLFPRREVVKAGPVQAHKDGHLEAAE", "T1 sequence (Q51662 2-150)": "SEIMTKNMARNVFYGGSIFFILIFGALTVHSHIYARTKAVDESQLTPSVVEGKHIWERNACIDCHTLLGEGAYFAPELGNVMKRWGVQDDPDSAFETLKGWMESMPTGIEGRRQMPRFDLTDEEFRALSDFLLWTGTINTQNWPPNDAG", "test": "Clark-type NO electrode, inhibition of NO reduction, data not shown", "assay_type": "biochemical", "settings": "inhibitor at high (mM) concentrations; 50 mM HEPES pH 7.0, 50 mM KCl"}
{"compound": "O=NO", "note": "[nitrite]", "values": [{"measurement": "Clark-type NO electrode, inhibition of NO reduction, data not shown", "result": "For nitrite, we see that it can inhibit cNOR activity, but only at high (mM)"}]}
